Data reported in US9156845B2, “4-(substituted amino)-7H-pyrrolo[2,3-d] pyrimidines as LRRK2 inhibitors” (Pfizer Inc., priority 2012, dated 2015).

How the values were obtained:
[1] = target: GST-tagged truncated LRRK2 (Homo sapiens (Human), UniProt Q5S007); assay: LRRK2 Lantha Screen kinase assay; type: biochemical; settings: geometric mean of 2-5 determinations unless otherwise indicated (a: >=6 determinations; b: single determination); read-out: LRRK2 WT IC50
mutant G2019S LRRK2 = mutant G2019S LRRK2 (Homo sapiens (Human), UniProt Q5S007, G2019S); assay: LRRK2 Lantha Screen kinase assay, mutant enzyme; type: biochemical; settings: geometric mean of 2-5 determinations unless otherwise indicated (a: >=6 determinations; b: single determination)
Chain of mutant G2019S LRRK2 (Q5S007 970-2527 G2019S): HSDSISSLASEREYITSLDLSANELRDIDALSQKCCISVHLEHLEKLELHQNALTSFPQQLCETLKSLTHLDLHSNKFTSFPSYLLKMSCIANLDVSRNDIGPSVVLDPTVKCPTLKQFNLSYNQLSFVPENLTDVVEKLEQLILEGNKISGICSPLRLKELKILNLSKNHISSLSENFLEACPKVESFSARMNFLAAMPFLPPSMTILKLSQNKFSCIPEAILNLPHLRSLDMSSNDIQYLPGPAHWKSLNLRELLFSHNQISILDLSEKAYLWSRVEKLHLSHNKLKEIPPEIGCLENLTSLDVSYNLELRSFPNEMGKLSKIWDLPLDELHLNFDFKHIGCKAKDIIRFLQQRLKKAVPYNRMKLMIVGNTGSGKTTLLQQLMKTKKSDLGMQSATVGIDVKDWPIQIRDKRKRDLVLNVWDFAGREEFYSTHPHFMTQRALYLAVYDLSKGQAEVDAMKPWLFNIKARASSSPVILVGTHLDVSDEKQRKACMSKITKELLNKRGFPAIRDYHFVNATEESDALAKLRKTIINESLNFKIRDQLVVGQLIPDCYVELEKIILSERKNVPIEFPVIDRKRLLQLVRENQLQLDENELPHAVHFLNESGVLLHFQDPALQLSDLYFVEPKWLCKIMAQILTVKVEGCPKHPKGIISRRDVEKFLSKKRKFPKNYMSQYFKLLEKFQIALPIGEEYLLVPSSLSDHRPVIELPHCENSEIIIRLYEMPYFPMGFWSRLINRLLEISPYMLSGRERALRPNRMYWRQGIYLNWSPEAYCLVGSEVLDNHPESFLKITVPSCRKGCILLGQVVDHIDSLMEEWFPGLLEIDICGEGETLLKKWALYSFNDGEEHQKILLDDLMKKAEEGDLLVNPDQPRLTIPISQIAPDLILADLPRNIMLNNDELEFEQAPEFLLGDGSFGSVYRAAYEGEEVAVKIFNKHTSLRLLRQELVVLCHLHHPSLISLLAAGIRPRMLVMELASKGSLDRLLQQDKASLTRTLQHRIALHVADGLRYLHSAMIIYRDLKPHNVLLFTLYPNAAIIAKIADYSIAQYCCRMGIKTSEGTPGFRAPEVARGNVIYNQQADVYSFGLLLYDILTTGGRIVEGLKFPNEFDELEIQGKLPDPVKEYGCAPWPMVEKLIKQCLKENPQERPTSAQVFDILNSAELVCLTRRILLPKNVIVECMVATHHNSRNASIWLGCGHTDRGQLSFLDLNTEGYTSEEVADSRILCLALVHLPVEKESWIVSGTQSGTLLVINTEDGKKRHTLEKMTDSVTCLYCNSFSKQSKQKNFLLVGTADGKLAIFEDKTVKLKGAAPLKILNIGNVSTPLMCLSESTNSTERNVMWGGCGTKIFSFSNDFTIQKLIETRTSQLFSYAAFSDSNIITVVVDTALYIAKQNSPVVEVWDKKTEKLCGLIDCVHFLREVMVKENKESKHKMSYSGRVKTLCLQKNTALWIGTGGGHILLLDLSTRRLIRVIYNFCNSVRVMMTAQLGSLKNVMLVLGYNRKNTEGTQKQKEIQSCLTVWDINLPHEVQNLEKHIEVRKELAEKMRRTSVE
Method: LRRK2 kinase activity was measured using Lantha Screen technology from Invitrogen. GST-tagged truncated LRRK2 from Invitrogen (Cat # PV4874) was incubated with a fluorescein-labeled peptide substrate based upon ezrin/radixin/moesin (ERM), also known as LRRKtide (Invitrogen cat #PR8976A), in the presence of a dose response of compound. Upon completion, the assay was stopped and detected with a terbium labeled anti-phospho-ERM antibody (Invitrogen, cat #PR8975A). […] Aliquots (3.5 μL) of the 100% DMSO dose response were mixed with 46.5 μL water then 1 μL of this mixture was added to the 3 μL substrate mix in the 384-well plate. The kinase reaction was started with 3 μL of a working solution of LRRK2 enzyme at a concentration of 4 μg/mL. […] The reaction was allowed to progress at room temperature for two hours and then stopped with the addition of 7 μL of detection buffer (20 mM Tris pH 7.6, 0.01% NP-40, 0.02% NaN3, 6 mM EDTA with 2 nM terbium labeled anti-phospho-ERM).
All final concentrations of substrate ATP and enzyme were the same.

Chain of GST-tagged truncated LRRK2 (Q5S007 970-2527): as the sequence (Q5S007 970-2527 G2019S) above, with S1050G counted along it

IC50 [1] [nM]	IC50 (mutant G2019S LRRK2) [nM]	SMILES
38	82	C[C@H]1CN(c2ncnc3[nH]cc(-c4cccc(F)c4)c23)CCO1 [Example 182, 5-(3-fluorophenyl)-4-[(2S)-2-methylmorpholin-4-yl]-7H-pyrrolo[2,3-d]pyrimidine]
44	165	C[C@H]1COCCN1c1ncnc2[nH]cc(-c3cccc(C#N)c3)c12 [Example 153, 3-{4-[(3S)-3-methylmorpholin-4-yl]-7H-pyrrolo[2,3-d]pyrimidin-5-yl}benzonitrile]
54	248	CN(C)C(=O)CCNc1ncnc2[nH]cc(-c3cccc(C#N)c3)c12 [Example 31, N^3-[5-(3-cyanophenyl)-7H-pyrrolo[2,3-d]pyrimidin-4-yl]-N,N-dimethyl-beta-alaninamide]
42	106	N#Cc1cccc(-c2c[nH]c3ncnc(N4CCC(F)(CO)CC4)c23)c1 [Example 133, 3-{4-[4-fluoro-4-(hydroxymethyl)piperidin-1-yl]-7H-pyrrolo[2,3-d]pyrimidin-5-yl}benzonitrile]
13	20	Cc1cccc(-c2c[nH]c3ncnc(N4CCOCC4)c23)c1 [Example 107, 5-(3-methylphenyl)-4-(morpholin-4-yl)-7H-pyrrolo[2,3-d]pyrimidine]
16	45	C[C@H]1CCCN(c2ncnc3[nH]cc(-c4cccc(C#N)c4)c23)C1 [Example 16, 3-{4-[(3S)-3-methylpiperidin-1-yl]-7H-pyrrolo[2,3-d]pyrimidin-5-yl}benzonitrile]
26	28	C[C@H]1CCCN(c2ncnc3[nH]cc(-c4ccc(O)cc4)c23)C1 [Example 56, 4-{4-[(3S)-3-methylpiperidin-1-yl]-7H-pyrrolo[2,3-d]pyrimidin-5-yl}phenol]
6	28	N#Cc1cccc(-c2c[nH]c3ncnc(N4CCCCC4)c23)c1 [Example 12, 3-[4-(piperidin-1-yl)-7H-pyrrolo[2,3-d]pyrimidin-5-yl]benzonitrile]
28	36	Clc1cncc(-c2c[nH]c3ncnc(N4CCOCC4)c23)c1 [Example 150, 5-(5-chloropyridin-3-yl)-4-(morpholin-4-yl)-7H-pyrrolo[2,3-d]pyrimidine]
42	513	Cc1nc(N2CCOCC2)c2c(-c3cccc(C#N)c3)c[nH]c2n1 [Example 9, 3-[2-Methyl-4-(morpholin-4-yl)-7H-pyrrolo[2,3-d]pyrimidin-5-yl]benzonitrile]
37	234	N#Cc1cccc(-c2c[nH]c3ncnc(N4CCOC(c5ccno5)C4)c23)c1 (centres unmarked) [Example 219, 3-{4-[2-(1,2-oxazol-5-yl)morpholin-4-yl]-7H-pyrrolo[2,3-d]pyrimidin-5-yl}benzonitrile]
9	26	N#Cc1cccc(-c2c[nH]c3ncnc(N4CCOCC4)c23)n1 [Example 3, 6-[4-(Morpholin-4-yl)-7H-pyrrolo[2,3-d]pyrimidin-5-yl]pyridine-2-carbonitrile]
95	154	Fc1ccc(-c2c[nH]c3ncnc(N4CCOCC4)c23)cc1 [Example 99, 5-(4-fluorophenyl)-4-(morpholin-4-yl)-7H-pyrrolo[2,3-d]pyrimidine]
79	169	N#Cc1cccc(-c2c[nH]c3ncnc(N4CCCC(F)(F)C4)c23)c1 [Example 128, 3-[4-(3,3-difluoropiperidin-1-yl)-7H-pyrrolo[2,3-d]pyrimidin-5-yl]benzonitrile]
53	331	N#Cc1cccc(-c2c[nH]c3ncnc(N4CCCC(c5ncc[nH]5)C4)c23)c1 (centres unmarked) [Example 38, 3-{4-[3-(1H-imidazol-2-yl)piperidin-1-yl]-7H-pyrrolo[2,3-d]pyrimidin-5-yl}benzonitrile]
77	92	CCn1cc(-c2c[nH]c3ncnc(N4CCOCC4)c23)cn1 [Example 148, 5-(1-ethyl-1H-pyrazol-4-yl)-4-(morpholin-4-yl)-7H-pyrrolo[2,3-d]pyrimidine]
79	154	COC1CCCN(c2ncnc3[nH]cc(-c4cccc(C#N)c4)c23)C1 (centres unmarked) [Example 29, 3-[4-(3-methoxypiperidin-1-yl)-7H-pyrrolo[2,3-d]pyrimidin-5-yl]benzonitrile]
95	148	N#Cc1ccccc1-c1c[nH]c2ncnc(N3CCOCC3)c12 [Example 82, 2-[4-(morpholin-4-yl)-7H-pyrrolo[2,3-d]pyrimidin-5-yl]benzonitrile]
92	238	Fc1cc(F)cc(-c2c[nH]c3ncnc(N4CCOCC4)c23)c1 [Example 92, 5-(3,5-difluorophenyl)-4-(morpholin-4-yl)-7H-pyrrolo[2,3-d]pyrimidine]
55	35	CN(C)c1ncnc2[nH]cc(-c3cnn(C)c3)c12 [Example 126, N,N-dimethyl-5-(1-methyl-1H-pyrazol-4-yl)-7H-pyrrolo[2,3-d]pyrimidin-4-amine]

IC50 [1] [nM]	IC50 (mutant G2019S LRRK2) [nM]	SMILES
52	78	CSc1cccc(-c2c[nH]c3ncnc(N4CCOCC4)c23)c1 [Example 102, 5-[3-(methylsulfanyl)phenyl]-4-(morpholin-4-yl)-7H-pyrrolo[2,3-d]pyrimidine]
214	245	COCC1CN(c2ncnc3[nH]cc(-c4cccc(C#N)c4)c23)CCO1 (single isomer, unassigned) [Example 197]
41	39	NC(=O)C1CCCN(c2ncnc3[nH]cc(-c4ccccc4)c23)C1 (centres unmarked) [Example 13, 1-(5-phenyl-7H-pyrrolo[2,3-d]pyrimidin-4-yl)piperidine-3-carboxamide]
22	24	COc1ccc(F)cc1-c1c[nH]c2ncnc(N3CCCC(F)C3)c12 (centres unmarked) [Example 181, 5-(5-fluoro-2-methoxyphenyl)-4-(3-fluoropiperidin-1-yl)-7H-pyrrolo[2,3-d]pyrimidine]
13	9	C[C@H]1CCCN(c2ncnc3[nH]cc(-c4ccc(C(N)=O)cc4)c23)C1 [Example 57, 4-{4-[(3S)-3-methylpiperidin-1-yl]-7H-pyrrolo[2,3-d]pyrimidin-5-yl}benzamide]
70	172	CC1CCCN(c2ncnc3[nH]cc(-c4cccc(C#N)c4)c23)C1 (single isomer, unassigned) [Example 41]
84	96	COc1cc(F)cc(-c2c[nH]c3ncnc(N4CCC(F)CC4)c23)c1 [Example 160, 5-(3-fluoro-5-methoxyphenyl)-4-(4-fluoropiperidin-1-yl)-7H-pyrrolo[2,3-d]pyrimidine]
43	238	N#Cc1cccc(-c2c[nH]c3ncnc(N4CCOC(c5cc[nH]n5)C4)c23)c1 (centres unmarked) [Example 36, 3-{4-[2-(1H-pyrazol-3-yl)morpholin-4-yl]-7H-pyrrolo[2,3-d]pyrimidin-5-yl}benzonitrile]
70	135	OCc1cc(-c2c[nH]c3ncnc(N4CCOCC4)c23)ccc1F [Example 98, {2-fluoro-5-[4-(morpholin-4-yl)-7H-pyrrolo[2,3-d]pyrimidin-5-yl]phenyl}methanol]
24	33	C[C@H]1CCCN(c2ncnc3[nH]cc(-c4cccc(S(N)(=O)=O)c4)c23)C1 [Example 46, 3-{4-[(3S)-3-methylpiperidin-1-yl]-7H-pyrrolo[2,3-d]pyrimidin-5-yl}benzenesulfonamide]
10	27	N#Cc1cccc(-c2c[nH]c3ncnc(N4CCCC(O)C4)c23)c1 (centres unmarked) [Example 138, 3-[4-(3-hydroxypiperidin-1-yl)-7H-pyrrolo[2,3-d]pyrimidin-5-yl]benzonitrile]
78	243	CN1CCCC(Nc2ncnc3[nH]cc(-c4cccc(C#N)c4)c23)C1 (centres unmarked) [Example 39, 3-{4-[(1-methylpiperidin-3-yl)amino]-7H-pyrrolo[2,3-d]pyrimidin-5-yl}benzonitrile]
37	37	CN(c1ncnc2[nH]cc(-c3cnn(C)c3)c12)C1CC1 [Example 127, N-cyclopropyl-N-methyl-5-(1-methyl-1H-pyrazol-4-yl)-7H-pyrrolo[2,3-d]pyrimidin-4-amine]
21	33	Clc1ccccc1-c1c[nH]c2ncnc(N3CCOCC3)c12 [Example 95, 5-(2-chlorophenyl)-4-(morpholin-4-yl)-7H-pyrrolo[2,3-d]pyrimidine]
22	19	COc1ccc(Cl)cc1-c1c[nH]c2ncnc(N(C)C)c12 [Example 25, 5-(5-chloro-2-methoxyphenyl)-N,N-dimethyl-7H-pyrrolo[2,3-d]pyrimidin-4-amine]
60	91	Cc1nn(C)cc1-c1c[nH]c2ncnc(N3CCOCC3)c12 [Example 152, 5-(1,3-dimethyl-1H-pyrazol-4-yl)-4-(morpholin-4-yl)-7H-pyrrolo[2,3-d]pyrimidine]
7.47	14.7	Cn1cc(-c2c[nH]c3ncnc(N4CCOCC4)c23)nc1C#N [Example 220, 1-methyl-4-[4-(morpholin-4-yl)-7H-pyrrolo[2,3-d]pyrimidin-5-yl]-1H-imidazole-2-carbonitrile]
21.9	118	N#Cc1ccc(-c2c[nH]c3ncnc(N4CCOCC4)c23)s1 [Example 211, 5-[4-(morpholin-4-yl)-7H-pyrrolo[2,3-d]pyrimidin-5-yl]thiophene-2-carbonitrile]
25	46	COc1ccc(C#N)cc1-c1c[nH]c2ncnc(N3CCCC(C)C3)c12 (centres unmarked) [Example 23, 4-methoxy-3-[4-(3-methylpiperidin-1-yl)-7H-pyrrolo[2,3-d]pyrimidin-5-yl]benzonitrile]

SMILES	IC50 [1] [nM]	IC50 (mutant G2019S LRRK2) [nM]
N#Cc1cccc(-c2c[nH]c3ncnc(N4CC5CC(C4)O5)c23)c1 [Example 113, 3-[4-(6-oxa-3-azabicyclo[3.1.1]hept-3-yl)-7H-pyrrolo[2,3-d]pyrimidin-5-yl]benzonitrile]	58	523
